Some test systems named below: HCT-15 colon; KM12 colon; LOX IMVI melanoma; RPMI-8226 leukemia; UACC-257 melanoma; BT-549 breast; MALME-3M melanoma; SF-295 CNS; T-47D breast; NCI-H522 lung.
Holding throughout (assay): inhibition of tumour cell growth, NCI panel, 48 h

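Cells were grown in 96-well plates and exposed to each compound for 48 hours at five concentrations; endpoints were interpolated linearly between bracketing concentrations, or set to the highest concentration if not reached. Here, GI50 denotes the concentration required for 50% inhibition of growth. TGI is the concentration that stops growth completely.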 Bounds are passed on as bounds.

Take `O=C1CCC(c2ccccc2)=NN1c1nsc2ccccc12`: the TGI with HCT-15 colon, in the assay with KM12 colon, with LOX IMVI melanoma, in the assay with RPMI-8226 leukemia and with UACC-257 melanoma was greater than 100 µM throughout.
For the molecule `O=C1CC2(CCC(O)(c3ccc4ccccc4c3)C(C(=O)c3ccc4ccccc4c3)C2)C(=O)c2ccccc2N1` (centres undefined), the TGI in the assay with BT-549 breast, in the assay with LOX IMVI melanoma, with MALME-3M melanoma, in the assay on SF-295 CNS, with T-47D breast and with UACC-257 melanoma was greater than 100 µM each time.
As to `COc1cnc2c(c1)C(=O)c1c-2n(CCCN2CCOCC2)c(=O)c2cc(Cl)ccc12`, the GI50 in the assay with LOX IMVI melanoma is 0.152 µM; in the assay on MALME-3M melanoma, greater than 100 µM; in the assay with NCI-H522 lung, 0.244 µM; with RPMI-8226 leukemia, 0.426 µM; with SF-295 CNS, 0.239 µM. In addition, the TGI was 0.532 µM with LOX IMVI melanoma; greater than 100 µM in the assay on MALME-3M melanoma; greater than 100 µM with NCI-H522 lung; greater than 100 µM in the assay on RPMI-8226 leukemia; 0.664 µM with SF-295 CNS.
In the case of `COc1cccc(N2C(Cl)C(=O)C2c2c[nH]c3ccccc23)c1` (centres undefined), the TGI with KM12 colon, in the assay with MALME-3M melanoma, in the assay on NCI-H522 lung, in the assay on RPMI-8226 leukemia, in the assay with SF-295 CNS and in the assay with UACC-257 melanoma was greater than 100 µM each time.
In the case of `Nc1ncc(-c2ccc3ncnc(Nc4ccc(F)c(Cl)c4)c3c2)cn1`, the GI50 was 1.88 µM in the assay on BT-549 breast; 2.54 µM with HCT-15 colon; 5.01 µM with KM12 colon; 2.35 µM in the assay with LOX IMVI melanoma; 1.29 µM with MALME-3M melanoma; 1.7 µM with NCI-H522 lung. For the same molecule, the GI50 in the assay with RPMI-8226 leukemia is 2.15 µM; with SF-295 CNS, 2.11 µM; in the assay with T-47D breast, 0.703 µM; in the assay on UACC-257 melanoma, 13.4 µM. Besides, the TGI was 8.27 µM with BT-549 breast; greater than 100 µM in the assay on HCT-15 colon; greater than 100 µM in the assay with KM12 colon; 10.7 µM with LOX IMVI melanoma; 4.47 µM with MALME-3M melanoma; 8.92 µM with NCI-H522 lung. The TGI was 7.51 µM with RPMI-8226 leukemia, 11 µM in the assay on SF-295 CNS, 3.16 µM in the assay on T-47D breast and 31.7 µM with UACC-257 melanoma.
Consider `O=c1oc2cc(O)ccc2c(O)c1C(c1ccccc1)c1c(O)c2ccc(O)cc2oc1=O`, for which the TGI in the assay with BT-549 breast, with HCT-15 colon, in the assay with LOX IMVI melanoma, in the assay on MALME-3M melanoma, in the assay on SF-295 CNS and with T-47D breast was greater than 100 µM each time. In addition, the TGI in the assay on UACC-257 melanoma is greater than 100 µM.

The record behind these values is PubChem BioAssay (NCI).
